Test results reported in US8440724B2, “Inhibiting neurotransmitter reuptake” (Mayo Foundation for Medical Education and Research, priority 2008, dated 2013).

How the values were obtained:
hSERT, hNET, hDAT = assay: Human transporter binding: rank order and range of potency over the three transporters; settings: for Potency (rank-order of potency of binding; S = hSERT, N = hNET, D = hDAT): from KD values
Text: The program was modified to calculate the Hill coefficient (nH). Data are presented as geometric mean±S.E.M. of at least three independent experiments. One-component models and two-component models were compared using the root mean square error of each fit and the F test.

CYP2D6 = target: T1, CYP2D6 (Homo sapiens, UniProt P10635); assay: CYP2D6 inhibition, CYP2D6/AMMC kit (BD Biosciences), fluorescent substrate; assay type: in vitro ADME
T1 construct: purchased BD Biosciences 459200
T1 sequence (P10635 whole entry): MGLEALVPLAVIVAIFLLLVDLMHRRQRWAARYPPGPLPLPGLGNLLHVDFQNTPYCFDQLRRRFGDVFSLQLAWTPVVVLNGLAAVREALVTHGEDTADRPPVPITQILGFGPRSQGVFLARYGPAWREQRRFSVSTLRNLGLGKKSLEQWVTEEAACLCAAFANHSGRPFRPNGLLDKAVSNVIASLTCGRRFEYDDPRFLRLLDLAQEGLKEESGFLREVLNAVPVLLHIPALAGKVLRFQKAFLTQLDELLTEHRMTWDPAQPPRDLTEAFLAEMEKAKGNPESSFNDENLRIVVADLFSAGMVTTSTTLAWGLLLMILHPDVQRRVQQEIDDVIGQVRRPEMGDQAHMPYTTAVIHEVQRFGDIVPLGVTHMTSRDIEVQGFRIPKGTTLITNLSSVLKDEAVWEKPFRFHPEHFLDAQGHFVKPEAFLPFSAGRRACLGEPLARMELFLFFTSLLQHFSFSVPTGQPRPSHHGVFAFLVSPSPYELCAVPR
Text: This kit includes the use of a fluorescent P450 substrate (AMMC or 3-[2-(N,N-diethyl-N-methylamino)ethyl]-7-methoxy-4-methylcoumarin) and recombinant human P450.

hERG = hERG (Homo sapiens, UniProt Q12809); assay: hERG assay: block of rubidium ion (Rb+) efflux from cells expressing hERG
hERG, sequence (Q12809 whole entry): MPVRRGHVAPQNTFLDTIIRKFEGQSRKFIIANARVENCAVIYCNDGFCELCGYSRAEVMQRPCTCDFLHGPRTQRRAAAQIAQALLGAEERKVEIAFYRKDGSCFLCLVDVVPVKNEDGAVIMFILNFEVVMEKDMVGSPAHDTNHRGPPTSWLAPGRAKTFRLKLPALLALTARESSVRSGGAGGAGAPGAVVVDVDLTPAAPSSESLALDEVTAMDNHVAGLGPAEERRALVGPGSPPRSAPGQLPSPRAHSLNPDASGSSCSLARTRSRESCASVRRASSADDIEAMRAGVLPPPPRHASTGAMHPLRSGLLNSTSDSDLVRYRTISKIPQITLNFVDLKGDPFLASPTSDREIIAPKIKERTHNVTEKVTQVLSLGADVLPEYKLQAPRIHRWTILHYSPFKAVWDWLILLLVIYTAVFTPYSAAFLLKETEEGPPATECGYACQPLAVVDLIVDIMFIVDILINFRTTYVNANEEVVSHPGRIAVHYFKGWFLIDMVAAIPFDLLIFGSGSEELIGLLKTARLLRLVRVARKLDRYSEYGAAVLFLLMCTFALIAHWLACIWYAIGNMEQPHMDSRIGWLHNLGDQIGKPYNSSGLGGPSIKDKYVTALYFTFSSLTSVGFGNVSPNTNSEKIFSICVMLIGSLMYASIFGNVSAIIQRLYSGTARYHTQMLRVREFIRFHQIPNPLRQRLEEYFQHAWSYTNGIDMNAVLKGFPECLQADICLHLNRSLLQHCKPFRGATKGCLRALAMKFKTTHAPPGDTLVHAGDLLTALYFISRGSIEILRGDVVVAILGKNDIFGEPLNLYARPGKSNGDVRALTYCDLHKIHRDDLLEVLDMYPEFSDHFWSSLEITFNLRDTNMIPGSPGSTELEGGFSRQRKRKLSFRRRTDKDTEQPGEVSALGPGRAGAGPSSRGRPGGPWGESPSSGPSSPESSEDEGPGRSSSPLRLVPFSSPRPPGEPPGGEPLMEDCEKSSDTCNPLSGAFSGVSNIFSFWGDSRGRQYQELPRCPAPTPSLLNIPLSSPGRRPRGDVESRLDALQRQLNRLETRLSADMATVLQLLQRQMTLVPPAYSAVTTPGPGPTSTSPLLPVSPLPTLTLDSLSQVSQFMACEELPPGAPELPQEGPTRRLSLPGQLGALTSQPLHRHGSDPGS
Method: Human “ether-a-go-go” (hERG) is an ion channel. Blockade of this channel can be predictive of causing cardiac arrhythmias in humans. hERG assays were performed to measure the ability of a compound to block rubidium ion (Rb^+) efflux from cells expressing hERG. Cells were pre-loaded with Rb^+, incubated with test compound, and then exposed to a buffer that opens the channel and allows the efflux of ions. Compounds as powder were dissolved in 100% DMSO to prepare 100 mM stock solutions. […] The stocks were stored at 23° C.
The range of doses for the test compounds was 30 nM through 100,000 nM.

[1] = target: T2, rat serotonin transporter, synaptosomal preparations (Rattus norvegicus, UniProt P31652); assay: Inhibition of [3H]5-HT reuptake in rat brain synaptosomes (frontal cortex); assay type: biochemical
T2 construct: from tissue; host or cells: rat frontal cortex synaptosomes (male Sprague-Dawley)
T2 sequence (P31652 whole entry): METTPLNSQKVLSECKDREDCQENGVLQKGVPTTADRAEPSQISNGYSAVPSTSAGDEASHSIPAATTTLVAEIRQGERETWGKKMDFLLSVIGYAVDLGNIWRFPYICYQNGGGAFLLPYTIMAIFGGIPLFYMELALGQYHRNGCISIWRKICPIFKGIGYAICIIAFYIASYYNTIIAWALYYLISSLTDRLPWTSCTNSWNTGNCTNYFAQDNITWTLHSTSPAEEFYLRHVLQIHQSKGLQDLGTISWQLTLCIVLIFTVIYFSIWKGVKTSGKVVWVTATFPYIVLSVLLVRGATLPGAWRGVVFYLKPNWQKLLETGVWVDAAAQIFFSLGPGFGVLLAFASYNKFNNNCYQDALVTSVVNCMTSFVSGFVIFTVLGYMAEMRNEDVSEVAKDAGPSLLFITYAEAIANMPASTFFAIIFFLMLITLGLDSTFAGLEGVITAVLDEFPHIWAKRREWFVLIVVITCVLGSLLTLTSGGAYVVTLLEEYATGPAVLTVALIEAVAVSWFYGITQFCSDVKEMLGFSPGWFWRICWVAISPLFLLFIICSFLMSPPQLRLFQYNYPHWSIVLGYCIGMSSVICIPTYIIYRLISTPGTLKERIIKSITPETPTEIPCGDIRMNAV
Method: (§1) The dissected tissues were separately homogenized in 20 volumes (cortical) or 40 volumes (striatal) of ice-cold, oxygenated HEPES buffer 0.32 M sucrose containing 11 mM glucose (pH 7.4) in a glass Potter-Elvehjem homogenizer with Teflon® pestle (8 strokes, 900 rpm). The homogenates were centrifuged at 1,000×g for 10 minutes. The resulting supernatant was decanted and further centrifuged at 20,000×g for 20 minutes at 4° C. […] The synaptosomal protein concentration was determined by using the BCA assay (Pierce Biotechnology Inc, Rockford, Ill.), according to the manufacturer's instructions. Synaptosomal protein (1.0-2.5 mg) was suspended in 1 mL oxygenated incubation buffer as defined above. Test amine compound was pre-incubated with the synaptosomal preparation for 30 minutes at 37° C. in a shaking water bath (80 oscillations/minute).

[2] = target: T3, rat norepinephrine transport, synaptosomal preparations (Rattus norvegicus, UniProt Q63380); assay: Inhibition of [3H]NE reuptake in rat brain synaptosomes (occipital cortex); assay type: biochemical
T3 construct: from tissue; host or cells: rat occipital cortex synaptosomes (male Sprague-Dawley)
T3 sequence (Q63380 1-617): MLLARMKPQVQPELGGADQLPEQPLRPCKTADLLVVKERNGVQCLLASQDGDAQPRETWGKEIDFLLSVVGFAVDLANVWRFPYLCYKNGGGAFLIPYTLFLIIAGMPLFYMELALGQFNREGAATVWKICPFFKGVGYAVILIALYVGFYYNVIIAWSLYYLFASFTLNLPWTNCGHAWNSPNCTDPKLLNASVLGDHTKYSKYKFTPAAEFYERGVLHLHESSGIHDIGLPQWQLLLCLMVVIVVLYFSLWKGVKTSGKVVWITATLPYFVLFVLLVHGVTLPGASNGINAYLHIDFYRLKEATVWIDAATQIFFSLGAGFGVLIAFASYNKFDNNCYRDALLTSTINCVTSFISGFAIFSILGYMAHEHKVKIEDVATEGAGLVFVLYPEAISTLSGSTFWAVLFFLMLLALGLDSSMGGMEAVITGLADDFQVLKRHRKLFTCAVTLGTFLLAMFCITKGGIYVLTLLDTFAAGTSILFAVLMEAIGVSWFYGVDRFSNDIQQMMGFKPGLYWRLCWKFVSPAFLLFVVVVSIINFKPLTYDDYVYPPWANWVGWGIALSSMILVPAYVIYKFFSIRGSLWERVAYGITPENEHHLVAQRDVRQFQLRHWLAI
Method: as §1

[3] = target: T4, rat dopamine transporter, synaptosomal preparations (Rattus norvegicus, UniProt P23977); assay: Inhibition of [3H]DA reuptake in rat brain synaptosomes (striatum); assay type: biochemical
T4 construct: and striatal tissues for transport of dopamine; from tissue; host or cells: rat striatum synaptosomes (male Sprague-Dawley)
T4 sequence (P23977 whole entry): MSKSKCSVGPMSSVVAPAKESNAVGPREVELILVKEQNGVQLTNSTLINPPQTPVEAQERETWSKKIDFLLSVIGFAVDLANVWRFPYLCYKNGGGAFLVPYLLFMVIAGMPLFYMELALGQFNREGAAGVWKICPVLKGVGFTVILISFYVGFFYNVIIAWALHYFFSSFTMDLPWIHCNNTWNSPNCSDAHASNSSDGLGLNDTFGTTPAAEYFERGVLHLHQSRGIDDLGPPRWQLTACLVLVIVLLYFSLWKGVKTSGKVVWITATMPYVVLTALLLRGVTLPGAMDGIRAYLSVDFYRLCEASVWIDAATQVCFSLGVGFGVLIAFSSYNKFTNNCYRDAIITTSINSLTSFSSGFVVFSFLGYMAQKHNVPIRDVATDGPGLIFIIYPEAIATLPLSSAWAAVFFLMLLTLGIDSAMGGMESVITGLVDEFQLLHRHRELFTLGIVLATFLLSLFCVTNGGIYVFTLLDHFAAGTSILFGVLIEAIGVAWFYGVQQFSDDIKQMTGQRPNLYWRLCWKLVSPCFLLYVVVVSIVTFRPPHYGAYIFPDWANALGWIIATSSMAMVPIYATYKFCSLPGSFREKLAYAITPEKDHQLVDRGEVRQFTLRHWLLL
Method: as §1

[4] = system: rat 5-HT, NE and DA transport, synaptosomal preparations; assay: Rat brain synaptosomal transport: rank order of potency; assay type: biochemical; settings: from Ki values; S = 5HT, N = NE, D = DA
Method: as §1

Male Sprague-Dawley rats = assay: Forced swim test in rats; assay type: in vivo, rat; settings: 5 mg/kg IP
Method: When rats are placed in a cylinder of water from which they cannot escape, they will remain immobile in the water for the majority of the test.
Water was changed between trials, and the procedure involved a pretest and a 5-minute test separated by 24 hours. During the pretest, rats (adapted to the experimental room for no less than one hour) were placed in the cylinder for 15 minutes. Following this initial exposure, the rats were dried with towels and transferred to a “drying cage” situated under a warming lamp. […] The following day, rats were transferred to the experimental room and acclimated for at least one hour.
The rat was considered immobile when floating motionless or making only those movements necessary to keep its head above the surface of the water. Scores for each behavior (swimming or immobility) were expressed as total counts per 5-minute session. Statistical analysis was performed using ANOVA followed by the Tukey test for post-hoc comparisons.

[5] = target: human norepinephrine transporter (Homo sapiens, UniProt P23975); assay: Inhibition of [3H]NE transport into HEK-293 cells expressing the human transporter
human norepinephrine transporter, sequence (P23975 whole entry): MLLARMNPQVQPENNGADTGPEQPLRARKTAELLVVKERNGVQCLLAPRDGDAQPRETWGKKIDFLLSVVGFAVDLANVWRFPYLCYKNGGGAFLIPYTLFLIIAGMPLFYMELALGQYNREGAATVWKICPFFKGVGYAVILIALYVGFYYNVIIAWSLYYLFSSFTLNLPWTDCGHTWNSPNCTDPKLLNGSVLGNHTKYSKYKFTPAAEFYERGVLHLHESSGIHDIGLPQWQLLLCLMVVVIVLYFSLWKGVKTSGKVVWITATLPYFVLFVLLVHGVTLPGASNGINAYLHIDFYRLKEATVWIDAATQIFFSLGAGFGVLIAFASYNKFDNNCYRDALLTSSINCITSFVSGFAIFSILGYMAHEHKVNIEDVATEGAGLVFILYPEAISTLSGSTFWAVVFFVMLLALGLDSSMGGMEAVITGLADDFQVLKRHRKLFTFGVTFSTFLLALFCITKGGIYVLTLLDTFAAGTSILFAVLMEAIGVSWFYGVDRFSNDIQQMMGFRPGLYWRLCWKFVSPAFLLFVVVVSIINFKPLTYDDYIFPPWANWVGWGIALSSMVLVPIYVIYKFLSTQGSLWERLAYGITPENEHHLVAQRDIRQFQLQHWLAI

[6] = target: human serotonin transporter (Homo sapiens, UniProt P31645); assay: Inhibition of [3H]5-HT transport into HEK-293 cells expressing the human transporter
human serotonin transporter, sequence (P31645 whole entry): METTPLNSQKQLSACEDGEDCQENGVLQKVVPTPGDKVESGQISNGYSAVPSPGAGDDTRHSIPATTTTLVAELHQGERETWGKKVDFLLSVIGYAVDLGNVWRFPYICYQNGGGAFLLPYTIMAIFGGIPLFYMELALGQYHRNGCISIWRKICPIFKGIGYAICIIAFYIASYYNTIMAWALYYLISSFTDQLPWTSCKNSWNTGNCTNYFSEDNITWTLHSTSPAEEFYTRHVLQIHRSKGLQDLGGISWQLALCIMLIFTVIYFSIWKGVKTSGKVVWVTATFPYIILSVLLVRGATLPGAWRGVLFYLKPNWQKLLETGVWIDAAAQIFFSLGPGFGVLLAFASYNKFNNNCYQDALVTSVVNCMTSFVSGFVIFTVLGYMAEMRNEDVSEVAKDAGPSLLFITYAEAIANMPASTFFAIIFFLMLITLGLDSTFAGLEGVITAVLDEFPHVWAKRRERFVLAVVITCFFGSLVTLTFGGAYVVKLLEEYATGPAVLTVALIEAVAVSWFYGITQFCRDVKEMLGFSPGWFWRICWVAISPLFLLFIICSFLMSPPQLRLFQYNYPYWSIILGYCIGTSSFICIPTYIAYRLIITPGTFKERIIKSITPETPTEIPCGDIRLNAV

mice = assay: Locomotor activity in motility chamber, mice; assay type: in vivo, mouse; settings: 5 mg/kg IP, 10 minute intervals for 3 hours, FIG. 11

Compound | Potency (rank-order of potency of binding; S = hSERT, N = hNET, D = hDAT) (hSERT, hNET, hDAT) | Potency (rank-order of potency of binding; S = hSERT, N = hNET, D = hDAT) (hSERT, hNET, hDAT; listed as PRC200) | Potency Range (difference between most potent and least potent binding) (hSERT, hNET, hDAT; ratio of KD over hSERT, hNET, hDAT) [fold] | IC50 (CYP2D6) [nM] | IC50 (hERG) [nM] | Ki [1] [nM] | Ki [2] [nM] | Ki [3] [nM] | Potency (rank order, transport into rat brain synaptosomal preparations) [4] | Immobility in forced swim test vs saline (Male Sprague-Dawley rats) | Swimming in forced swim test vs saline (Male Sprague-Dawley rats) | Antidepressant activity in forced swim test compared with imipramine (15 mg/kg IP) (Male Sprague-Dawley rats; FIG. 12A) | Ki [5] [nM] | Ki [6] [nM] | Effect on locomotor activity (mice)
CNC[C@H](c1ccc2ccccc2c1)[C@H](O)c1ccccc1 [PRC200-SS, (1S,2S)-3-(methylamino)-2-(naphthalen-2-yl)-1-phenylpropan-1-ol, reference compound] | N > S > D | N>S>D | 45 | 80 | 32600 | 2.12 ± 0.9 | 6 ± 2 | 61 ± 4 | S > N > D | statistically (P<0.04) less immobility | statistically (P<0.04) more swimming behavior | antidepressant activity that was similar to that observed in rats treated with the positive control | 6 ± 2 | 2.8 ± 0.4 | –
C[C@H](N)Cc1ccccc1 [d-amphetamine, reference compound] | – | – | – | – | – | – | – | – | – | – | – | – | – | – | caused a significant effect on locomotor activity
